Consider one compound from ChEMBL document CHEMBL4507319 (2021).

The target in experiment [1] is Mitogen-activated protein kinase kinase kinase kinase 1 (Homo sapiens) (UniProt Q92918). Nature of the experiment: HPK1(h) Eurofins kinase panel. As to conditions: Compound concentration 1.0 uM.
The target in experiment [2] is Tyrosine-protein kinase receptor UFO (Homo sapiens) (UniProt P30530). Put plainly: Axl(h) Eurofins kinase panel. As to conditions: Compound concentration 1.0 uM.
Experiment [3] deals with Ephrin type-A receptor 4 (Homo sapiens) (UniProt P54764). Put plainly: EphA4(h) Eurofins kinase panel. The conditions noted are these: Compound concentration 1.0 uM.
The target of experiment [4] is Serine/threonine-protein kinase PAK 5 (Homo sapiens) (UniProt Q9P286). Put plainly: PAK5(h) Eurofins kinase panel. As to conditions: Compound concentration 1.0 uM.
The target in experiment [5] is Proto-oncogene tyrosine-protein kinase receptor Ret (Homo sapiens) (UniProt P07949). Nature of the experiment: Ret(h) Eurofins kinase panel. As to conditions: Compound concentration 1.0 uM.
The target in experiment [6] is Interleukin-1 receptor-associated kinase 1 (Homo sapiens) (UniProt P51617). Nature of the experiment: IRAK1(h) Eurofins kinase panel. The conditions noted are these: Compound concentration 1.0 uM.
Experiment [7] has as its target Vascular endothelial growth factor receptor 2 (Homo sapiens) (UniProt P35968). Put plainly: KDR(h) Eurofins kinase panel. As to conditions: Compound concentration 1.0 uM.
In experiment [8] the target is 5'-AMP-activated protein kinase catalytic subunit alpha-2 (Homo sapiens, UniProt P54646).
5'-AMP-activated protein kinase catalytic subunit alpha-2, sequence (P54646 whole entry): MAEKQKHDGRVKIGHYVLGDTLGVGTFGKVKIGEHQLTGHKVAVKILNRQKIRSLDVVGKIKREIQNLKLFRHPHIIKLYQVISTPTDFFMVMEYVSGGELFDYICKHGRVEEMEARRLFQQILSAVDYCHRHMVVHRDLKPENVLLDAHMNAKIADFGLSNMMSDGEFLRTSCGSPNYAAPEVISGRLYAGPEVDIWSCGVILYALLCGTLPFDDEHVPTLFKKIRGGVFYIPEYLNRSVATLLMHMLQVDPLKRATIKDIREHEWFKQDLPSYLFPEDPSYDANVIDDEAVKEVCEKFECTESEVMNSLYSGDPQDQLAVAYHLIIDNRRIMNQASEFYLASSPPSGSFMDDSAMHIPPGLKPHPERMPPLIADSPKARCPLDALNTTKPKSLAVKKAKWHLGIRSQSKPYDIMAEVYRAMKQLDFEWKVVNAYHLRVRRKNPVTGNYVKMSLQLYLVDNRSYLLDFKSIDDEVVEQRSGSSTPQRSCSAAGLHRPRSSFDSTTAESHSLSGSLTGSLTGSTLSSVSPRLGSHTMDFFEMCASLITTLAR
Experiment [9] has as its target Serine/threonine-protein kinase PLK2 (Homo sapiens) (UniProt Q9NYY3). Put plainly: Snk(h) Eurofins kinase panel. The conditions noted are these: Compound concentration 1.0 uM.
The target of experiment [10] is Tyrosine-protein kinase Fer (Homo sapiens) (UniProt P16591). Nature of the experiment: Fer(h) Eurofins kinase panel. As to conditions: Compound concentration 1.0 uM.
The target of experiment [11] is 5'-AMP-activated protein kinase catalytic subunit alpha-1 (Homo sapiens, UniProt Q13131).
For experiment [12], the target named is Phosphatidylinositol 5-phosphate 4-kinase type-2 alpha (Homo sapiens) (UniProt P48426). Nature of the experiment: PIP4K2a(h) Eurofins kinase panel. The conditions noted are these: Compound concentration 1.0 uM.
Phosphatidylinositol 5-phosphate 4-kinase type-2 alpha (Homo sapiens), sequence (P48426 whole entry): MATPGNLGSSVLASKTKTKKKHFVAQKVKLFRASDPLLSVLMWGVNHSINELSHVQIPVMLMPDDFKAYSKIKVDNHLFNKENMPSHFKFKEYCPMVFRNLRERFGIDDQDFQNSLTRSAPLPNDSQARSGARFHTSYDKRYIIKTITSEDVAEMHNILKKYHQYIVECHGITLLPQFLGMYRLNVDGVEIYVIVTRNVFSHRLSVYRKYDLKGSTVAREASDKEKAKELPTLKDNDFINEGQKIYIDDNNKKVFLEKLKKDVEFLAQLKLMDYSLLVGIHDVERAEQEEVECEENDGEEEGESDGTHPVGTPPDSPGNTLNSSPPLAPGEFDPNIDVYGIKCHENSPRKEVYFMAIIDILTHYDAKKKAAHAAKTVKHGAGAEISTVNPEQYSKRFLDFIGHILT
In experiment [13] the target is T1, Bone morphogenetic protein receptor type-2 (Homo sapiens) (UniProt Q13873).
T1 sequence (whole entry): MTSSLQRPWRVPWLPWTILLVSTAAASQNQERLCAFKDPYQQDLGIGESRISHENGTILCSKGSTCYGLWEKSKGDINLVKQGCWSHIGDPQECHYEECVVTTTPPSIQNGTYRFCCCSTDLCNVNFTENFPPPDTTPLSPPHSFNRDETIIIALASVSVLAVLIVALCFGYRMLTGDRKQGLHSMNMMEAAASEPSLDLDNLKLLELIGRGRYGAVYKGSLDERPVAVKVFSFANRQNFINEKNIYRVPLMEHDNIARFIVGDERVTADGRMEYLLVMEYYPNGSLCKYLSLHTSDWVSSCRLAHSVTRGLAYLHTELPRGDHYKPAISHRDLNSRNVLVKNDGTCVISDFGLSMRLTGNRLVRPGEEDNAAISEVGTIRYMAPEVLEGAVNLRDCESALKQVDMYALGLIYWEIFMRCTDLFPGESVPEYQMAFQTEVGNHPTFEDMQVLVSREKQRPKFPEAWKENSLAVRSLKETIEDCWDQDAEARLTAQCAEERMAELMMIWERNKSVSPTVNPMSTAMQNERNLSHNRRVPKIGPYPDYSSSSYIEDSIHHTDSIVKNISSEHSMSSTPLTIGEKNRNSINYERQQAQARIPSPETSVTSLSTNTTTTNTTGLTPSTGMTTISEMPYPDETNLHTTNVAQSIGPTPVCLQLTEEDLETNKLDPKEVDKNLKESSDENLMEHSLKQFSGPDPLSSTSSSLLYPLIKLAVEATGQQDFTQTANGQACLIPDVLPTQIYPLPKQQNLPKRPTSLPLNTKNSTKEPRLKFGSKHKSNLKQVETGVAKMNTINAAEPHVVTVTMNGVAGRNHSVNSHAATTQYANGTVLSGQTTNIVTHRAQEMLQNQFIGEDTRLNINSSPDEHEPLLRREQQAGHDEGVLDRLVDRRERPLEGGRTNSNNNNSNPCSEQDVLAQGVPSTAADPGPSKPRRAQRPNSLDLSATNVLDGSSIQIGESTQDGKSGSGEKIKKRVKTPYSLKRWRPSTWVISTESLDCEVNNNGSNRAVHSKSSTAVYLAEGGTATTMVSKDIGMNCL
Put plainly: BMPR2(h) Eurofins kinase panel. As to conditions: Compound concentration 1.0 uM.

The target in experiment [14] is Testis-specific serine/threonine-protein kinase 4 (Homo sapiens) (UniProt Q6SA08). Nature of the experiment: TSSK4(h) Eurofins kinase panel. As to conditions: Compound concentration 1.0 uM.
In experiment [15] the target is Insulin receptor-related protein (Homo sapiens) (UniProt P14616). Put plainly: IRR(h) Eurofins kinase panel. The conditions noted are these: Compound concentration 1.0 uM.
Insulin receptor-related protein (Homo sapiens), sequence (P14616 27-742 limits assumed): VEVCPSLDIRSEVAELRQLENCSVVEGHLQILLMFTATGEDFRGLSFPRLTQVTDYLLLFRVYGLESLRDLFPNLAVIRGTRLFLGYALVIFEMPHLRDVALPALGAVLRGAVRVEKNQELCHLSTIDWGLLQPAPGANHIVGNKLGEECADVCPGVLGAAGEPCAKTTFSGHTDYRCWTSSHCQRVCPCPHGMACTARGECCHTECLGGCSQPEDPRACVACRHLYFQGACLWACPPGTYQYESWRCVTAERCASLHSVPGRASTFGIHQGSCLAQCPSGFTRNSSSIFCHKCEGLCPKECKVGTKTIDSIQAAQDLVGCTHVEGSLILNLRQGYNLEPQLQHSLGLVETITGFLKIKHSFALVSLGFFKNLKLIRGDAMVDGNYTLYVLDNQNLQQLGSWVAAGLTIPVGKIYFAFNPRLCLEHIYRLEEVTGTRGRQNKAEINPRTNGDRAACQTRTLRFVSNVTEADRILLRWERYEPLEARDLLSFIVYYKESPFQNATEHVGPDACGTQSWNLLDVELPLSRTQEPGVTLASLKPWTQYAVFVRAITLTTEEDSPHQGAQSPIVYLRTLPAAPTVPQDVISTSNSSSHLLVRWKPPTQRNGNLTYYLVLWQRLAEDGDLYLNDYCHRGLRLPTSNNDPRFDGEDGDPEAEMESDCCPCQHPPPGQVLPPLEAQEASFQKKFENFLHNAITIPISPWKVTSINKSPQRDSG
Insulin receptor-related protein (Homo sapiens), sequence (P14616 747-1297 limits assumed): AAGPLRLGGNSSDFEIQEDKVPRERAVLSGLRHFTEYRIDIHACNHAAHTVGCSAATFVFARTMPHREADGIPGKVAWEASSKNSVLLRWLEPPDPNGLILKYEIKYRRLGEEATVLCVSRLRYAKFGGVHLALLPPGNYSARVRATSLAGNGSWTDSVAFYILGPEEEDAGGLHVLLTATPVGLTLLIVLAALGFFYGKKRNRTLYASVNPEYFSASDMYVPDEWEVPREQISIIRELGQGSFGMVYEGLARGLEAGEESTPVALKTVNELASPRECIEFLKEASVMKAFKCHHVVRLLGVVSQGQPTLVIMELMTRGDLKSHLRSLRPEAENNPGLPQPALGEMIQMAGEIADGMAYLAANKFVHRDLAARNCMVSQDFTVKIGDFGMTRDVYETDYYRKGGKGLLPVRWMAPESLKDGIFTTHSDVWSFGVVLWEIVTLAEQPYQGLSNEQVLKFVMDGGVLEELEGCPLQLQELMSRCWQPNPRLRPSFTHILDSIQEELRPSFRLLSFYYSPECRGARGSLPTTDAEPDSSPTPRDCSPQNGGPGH
Another experiment has as its system SU-DHL10. Nature of the experiment: SU-DHL-10 cell line Proliferation assay. The conditions noted are these: time 3 day. It is filed as functional, Homo sapiens.
Experiment [16] concerns the target Ribosomal protein S6 kinase alpha-6 (Homo sapiens) (UniProt Q9UK32). Put plainly: Rsk4(h) Eurofins kinase panel. As to conditions: Compound concentration 1.0 uM.
The subject of a further experiment is Raji. Nature of the experiment: RAJI cell line Proliferation assay. In kind it is functional, Homo sapiens. As to conditions: time 3 day.
Experiment [17] has as its target Casein kinase I isoform delta (Homo sapiens) (UniProt P48730). Put plainly: CK1delta(h) Eurofins kinase panel. The conditions noted are these: Compound concentration 1.0 uM.
Experiment [18] deals with T2, Dual specificity tyrosine-phosphorylation-regulated kinase 2 (Homo sapiens) (UniProt Q92630).
T2 sequence (whole entry): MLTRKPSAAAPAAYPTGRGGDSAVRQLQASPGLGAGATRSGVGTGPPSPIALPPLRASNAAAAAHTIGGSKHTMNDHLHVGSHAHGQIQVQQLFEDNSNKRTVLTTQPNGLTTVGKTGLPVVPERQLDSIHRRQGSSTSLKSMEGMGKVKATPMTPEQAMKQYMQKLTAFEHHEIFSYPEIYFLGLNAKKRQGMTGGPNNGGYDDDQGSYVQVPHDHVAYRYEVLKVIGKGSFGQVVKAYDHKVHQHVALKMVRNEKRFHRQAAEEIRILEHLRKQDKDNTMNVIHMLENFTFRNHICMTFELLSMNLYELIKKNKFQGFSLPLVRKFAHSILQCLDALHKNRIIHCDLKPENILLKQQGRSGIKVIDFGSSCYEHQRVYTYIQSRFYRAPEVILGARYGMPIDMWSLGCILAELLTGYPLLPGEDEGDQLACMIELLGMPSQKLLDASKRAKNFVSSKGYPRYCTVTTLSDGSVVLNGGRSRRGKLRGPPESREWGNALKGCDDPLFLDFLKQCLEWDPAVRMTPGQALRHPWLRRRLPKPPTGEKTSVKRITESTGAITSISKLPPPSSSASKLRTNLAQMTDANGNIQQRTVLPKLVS
Put plainly: DYRK2(h) Eurofins kinase panel. The conditions noted are these: Compound concentration 1.0 uM.

The structures appear in SMILES notation.

Serine/threonine-protein kinase PLK2 (Homo sapiens), sequence (Q9NYY3 whole entry, looked up): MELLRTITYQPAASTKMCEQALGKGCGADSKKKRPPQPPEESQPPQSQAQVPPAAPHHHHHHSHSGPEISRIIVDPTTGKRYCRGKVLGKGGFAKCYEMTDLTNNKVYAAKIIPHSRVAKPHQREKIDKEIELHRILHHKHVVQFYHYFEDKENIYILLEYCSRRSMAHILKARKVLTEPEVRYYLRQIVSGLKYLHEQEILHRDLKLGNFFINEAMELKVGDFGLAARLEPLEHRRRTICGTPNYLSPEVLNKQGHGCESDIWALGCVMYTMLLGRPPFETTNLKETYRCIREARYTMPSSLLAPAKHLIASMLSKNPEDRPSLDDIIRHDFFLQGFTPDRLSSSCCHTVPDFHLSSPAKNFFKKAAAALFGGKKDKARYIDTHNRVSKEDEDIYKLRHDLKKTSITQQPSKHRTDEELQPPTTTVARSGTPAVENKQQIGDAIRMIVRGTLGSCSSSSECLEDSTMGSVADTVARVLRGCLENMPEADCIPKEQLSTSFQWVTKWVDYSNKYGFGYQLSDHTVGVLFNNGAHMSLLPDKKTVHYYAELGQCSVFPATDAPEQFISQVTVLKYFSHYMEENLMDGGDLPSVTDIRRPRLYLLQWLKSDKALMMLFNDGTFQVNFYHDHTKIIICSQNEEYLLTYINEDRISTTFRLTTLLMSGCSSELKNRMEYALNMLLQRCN
Mitogen-activated protein kinase kinase kinase kinase 1 (Homo sapiens), sequence (Q92918 whole entry, looked up): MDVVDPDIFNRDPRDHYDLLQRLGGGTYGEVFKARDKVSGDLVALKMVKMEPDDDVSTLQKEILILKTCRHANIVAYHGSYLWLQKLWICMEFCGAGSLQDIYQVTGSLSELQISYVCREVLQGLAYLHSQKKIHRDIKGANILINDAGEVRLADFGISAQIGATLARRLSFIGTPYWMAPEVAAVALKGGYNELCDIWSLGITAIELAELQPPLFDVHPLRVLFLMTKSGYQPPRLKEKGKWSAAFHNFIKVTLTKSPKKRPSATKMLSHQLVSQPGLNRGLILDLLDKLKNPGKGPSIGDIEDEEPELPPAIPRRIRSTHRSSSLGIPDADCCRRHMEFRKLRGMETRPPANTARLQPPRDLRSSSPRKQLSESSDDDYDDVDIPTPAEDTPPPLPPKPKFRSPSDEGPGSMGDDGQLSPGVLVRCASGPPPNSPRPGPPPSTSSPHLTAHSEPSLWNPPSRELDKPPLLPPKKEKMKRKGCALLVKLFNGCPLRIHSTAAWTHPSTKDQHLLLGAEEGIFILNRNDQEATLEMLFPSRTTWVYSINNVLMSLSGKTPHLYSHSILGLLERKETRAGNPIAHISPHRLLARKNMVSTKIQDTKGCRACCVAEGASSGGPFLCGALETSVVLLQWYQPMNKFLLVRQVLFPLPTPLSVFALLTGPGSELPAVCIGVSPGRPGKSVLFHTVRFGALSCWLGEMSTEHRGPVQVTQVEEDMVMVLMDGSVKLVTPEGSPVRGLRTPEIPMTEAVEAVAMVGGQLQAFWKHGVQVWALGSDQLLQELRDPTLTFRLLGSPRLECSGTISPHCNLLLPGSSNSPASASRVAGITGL
Ribosomal protein S6 kinase alpha-6 (Homo sapiens), sequence (Q9UK32 whole entry): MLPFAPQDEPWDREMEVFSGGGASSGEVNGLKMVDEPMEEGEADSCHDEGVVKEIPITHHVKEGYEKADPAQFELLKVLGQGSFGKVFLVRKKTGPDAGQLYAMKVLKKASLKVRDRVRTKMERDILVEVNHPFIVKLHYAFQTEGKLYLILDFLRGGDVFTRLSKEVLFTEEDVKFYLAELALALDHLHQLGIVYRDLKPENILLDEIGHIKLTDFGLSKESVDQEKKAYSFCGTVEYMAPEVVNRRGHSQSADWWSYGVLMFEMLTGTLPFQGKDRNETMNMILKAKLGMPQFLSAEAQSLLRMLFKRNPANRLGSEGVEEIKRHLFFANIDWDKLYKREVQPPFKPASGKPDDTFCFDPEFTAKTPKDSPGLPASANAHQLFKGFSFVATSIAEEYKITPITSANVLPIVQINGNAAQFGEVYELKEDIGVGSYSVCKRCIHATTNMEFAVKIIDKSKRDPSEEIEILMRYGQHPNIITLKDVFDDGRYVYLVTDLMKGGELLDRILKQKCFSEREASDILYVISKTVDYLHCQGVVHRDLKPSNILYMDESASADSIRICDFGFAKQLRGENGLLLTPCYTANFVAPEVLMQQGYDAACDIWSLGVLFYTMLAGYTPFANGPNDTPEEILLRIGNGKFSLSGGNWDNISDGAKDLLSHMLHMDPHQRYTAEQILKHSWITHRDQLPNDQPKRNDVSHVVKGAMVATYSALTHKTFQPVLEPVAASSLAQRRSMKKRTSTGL
Casein kinase I isoform delta (Homo sapiens), sequence (P48730 whole entry, looked up, canonical isoform): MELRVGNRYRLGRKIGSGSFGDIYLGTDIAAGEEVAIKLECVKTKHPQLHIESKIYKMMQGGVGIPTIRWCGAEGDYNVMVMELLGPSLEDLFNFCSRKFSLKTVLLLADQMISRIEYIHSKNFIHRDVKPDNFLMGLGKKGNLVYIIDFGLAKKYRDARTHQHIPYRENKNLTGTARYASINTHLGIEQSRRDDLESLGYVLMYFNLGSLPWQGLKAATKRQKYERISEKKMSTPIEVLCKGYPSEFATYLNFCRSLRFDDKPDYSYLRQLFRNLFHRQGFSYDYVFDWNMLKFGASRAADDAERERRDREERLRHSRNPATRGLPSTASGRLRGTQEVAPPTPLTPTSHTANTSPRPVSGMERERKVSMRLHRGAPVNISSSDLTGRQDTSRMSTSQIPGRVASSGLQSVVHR

The term IC50 denotes the concentration at which inhibition is half-maximal. Low values mean greater potency in that assay, high ones weaker potency in that assay. Consider `CCc1ccccc1C(=O)Nc1n[nH]c2c(C)c(F)c(C3C(C#N)=C(C)N(C)C(C)=C3C#N)cc12` [BAY-3827], for which the % residual kinase activity in experiment [1] is 57%; in experiment [2], 100%; in experiment [3] it was 106%; in experiment [4], 86%; in [5], 23%; in experiment [6], 99%. For the same compound, the % residual kinase activity in [7] was 90%; in experiment [9] it was 100%; in [10] it was 100%; in [12], 105%; in experiment [13], 104%; in [14] it was 103%. Also, the % residual kinase activity in experiment [15] is 101%; in experiment [16], 2%; in [17], 94%; in experiment [18], 100%. Besides, the IC50 in experiment [8] worked out at 7 nM; in experiment [11] it was 10 nM. The “Cell Proliferation IC50” value in the experiment with SU-DHL10 is 12500 nM; in the experiment on Raji, above 33000 nM.
